From the supplement of paper PMC8671470
Structures can show the parent of a compound that is named as a salt.

Columns and labels:
Conditions in all cases: 72 h
[1] = system: myeloid leukemia patient primary cells Pat.2; experiment: area under dose-response curve (viability, 1 nM-10 uM) (fraction (0-1)); higher = more sensitive
Description: (§1)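 AUC (0–1, higher = more sensitive) of the 5-point dose–response (1 nM–10 µM, 72 h, CellTiter-Glo) in primary AML/CML patient mononuclear cells. 0.030103 is the floor for inactive compounds.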

[2] = system: myeloid leukemia patient primary cells Pat.12; experiment: as above
Description: as §1

[3] = system: myeloid leukemia patient primary cells Pat.15; experiment: as above
Description: as §1

[4] = system: myeloid leukemia patient primary cells Pat.4; experiment: as above
Description: as §1

[5] = system: myeloid leukemia patient primary cells Pat.5; experiment: as above
Description: as §1

[6] = system: myeloid leukemia patient primary cells Pat.11; experiment: as above
Description: as §1

[7] = system: myeloid leukemia patient primary cells Pat.10; experiment: as above
Description: as §1

[8] = system: myeloid leukemia patient primary cells Pat.1; experiment: as above
Description: as §1

[9] = system: myeloid leukemia patient primary cells Pat.3; experiment: as above
Description: as §1

[10] = system: myeloid leukemia patient primary cells Pat.14; experiment: as above
Description: as §1

[11] = system: myeloid leukemia patient primary cells Pat.6; experiment: as above
Description: as §1

[12] = system: myeloid leukemia patient primary cells Pat.9; experiment: as above
Description: as §1

[13] = system: myeloid leukemia patient primary cells Pat.13; experiment: as above
Description: as §1

[14] = system: myeloid leukemia patient primary cells Pat.7; experiment: as above
Description: as §1

[15] = system: myeloid leukemia patient primary cells Pat.8; experiment: as above
Description: as §1

HL-60 = experiment: cell viability (% survival relative to DMSO control); higher = less cytotoxic
Description: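 8x8 drug-combination matrices (0-5000 nM; rosiglitazone and lestaurtinib 0-1000 nM) were run in HL-60 cells for 72 h with a CellTiter-Glo read-out. Survival is normalised to DMSO and 10 µM bortezomib and clipped at 100%. Bliss synergy was analysed in SynergyFinder.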

O=c1cc(N2CCOCC2)oc2c(-c3ccccc3)cccc12
Conditions | area under dose-response curve
[1] | 0.0446
[2] | < 0.0301
[3] | 0.136
[4] | 0.18
[5] | 0.782
[6] | 0.0446
[7] | 0.771
[8] | 0.14
[9] | < 0.0301
[10] | 0.0381
[11] | < 0.0301
[12] | 0.736
[13] | 0.0372
[14] | < 0.0301

CCN(CC)C(=S)SSC(=S)N(CC)CC [Disulfiram]
Conditions | area under dose-response curve
[1] | 0.512
[2] | 0.485
[3] | 0.623
[4] | 0.373
[5] | 0.303
[6] | 0.374
[8] | 0.398
[9] | 0.164
[10] | 0.19
[11] | 0.414
[12] | 0.257
[13] | 0.412
[14] | 0.153
[15] | 0.503

Cc1cc2c(C(C)C)c(O)c(O)c(C=O)c2c(O)c1-c1c(C)cc2c(C(C)C)c(O)c(O)c(C=O)c2c1O [Gossypol]
Conditions | area under dose-response curve
[1] | 0.112
[2] | 0.0353
[3] | 0.0654
[4] | 0.117
[5] | 0.712
[6] | 0.135
[7] | 0.641
[8] | 0.135
[9] | 0.428
[10] | 0.386
[11] | 0.0898
[12] | 0.803
[13] | 0.107
[14] | 0.476
[15] | 0.123

Cc1[nH]nc(C(F)(F)F)c1Cc1sc2c(c1C(=O)N1C[C@](C)(O)CO1)c(=O)n(C)c(=O)n2C(C)C [AZD3965]
Conditions | area under dose-response curve
[1] | < 0.0301
[2] | < 0.0301
[3] | < 0.0301
[4] | < 0.0301
[5] | 0.149
[6] | < 0.0301
[7] | 0.167
[8] | < 0.0301
[9] | < 0.0301
[10] | < 0.0301
[11] | < 0.0301
[12] | < 0.0301
[13] | < 0.0301
[14] | < 0.0301
[15] | < 0.0301

CN(CCOc1ccc(Cc2sc(O)nc2O)cc1)c1ccccn1 [Rosiglitazone] + CC(C)(Cc1ccccc1)NCC(O)c1ccc(O)c(NS(C)(=O)=O)c1 [Zinterol hydrochloride]
cell viability [%], HL-60
Conditions | drug1 concentration 1 nM | drug1 concentration 5 nM | drug1 concentration 10 nM | drug1 concentration 50 nM | drug1 concentration 100 nM | drug1 concentration 500 nM | drug1 concentration 1000 nM
drug2 concentration 5 nM | 87.9 | 41.2 | > 100 | 97.5 | > 100 | > 100 | > 100
drug2 concentration 10 nM | 63.4 | 95.3 | > 100 | > 100 | 62.7 | > 100 | > 100
drug2 concentration 50 nM | 83.3 | 83 | 83.9 | > 100 | 58.8 | > 100 | 92.8
drug2 concentration 100 nM | > 100 | 92.2 | 90.1 | > 100 | 80.5 | 78.9 | > 100
drug2 concentration 500 nM | 90.1 | > 100 | > 100 | 95.3 | > 100 | 72.1 | 80.8
drug2 concentration 1000 nM | 40.6 | > 100 | > 100 | > 100 | > 100 | 60.1 | > 100
drug2 concentration 5000 nM | 59.8 | 94.4 | > 100 | > 100 | > 100 | > 100 | 97.7
